What was measured:
[1] = Solubility in organic solvents; assay type: physicochemical
Method: Before fabricating the FETs, the solubility of the two semiconductor compositions in tetrahydrofuran (THF) was determined.

[2] = Solubility in organic solvents; assay type: physicochemical; remark: listed apart in the source
[3] = Viscosity of formulation or solution; assay type: physicochemical; settings: c = 500 ppm, cyclohexanol/THFA/THF = 86:9:5

Compound	melting point [°C]	solubility in THF ([1]; THF)	further results
CC(C)(C)[Si](OCCCCCCOc1ccc(-c2ccc(-c3ccc(-c4ccc(OCCCCCCO[Si](c5ccccc5)(c5ccccc5)C(C)(C)C)cc4)s3)s2)cc1)(c1ccccc1)c1ccccc1 [6(6TBDPSO)-O-PTTP-O-6(6TBDPSO), 5,5′-Bis-{4-[6-(tert-butyl-diphenyl-silanyloxy)-hexyloxy]-phenyl}-[2,2′]bithiophenyl]		Well soluble in THF(about 310,000 ppm);	
CCCOCCc1ccc(-c2ccc(-c3ccc(-c4ccc(CCOCCC)cc4)s3)s2)cc1 [3O2PTTP2O3, 5,5′-Bis(4-(propxyethyl)phenyl)-2,2′-bithiophene]			solubility (in words) ([1]; compared with 6PTTP6): Solubility like6PTTP6
CC(COc1ccc(-c2ccc(-c3ccc(-c4ccc(OCC(C)COC5CCCCO5)cc4)s3)s2)cc1)COC1CCCCO1 (stereo not shown) [3(3THPO,2Me)-O-PTTP-O-3(THPO,2Me), 5,5′-Bis-[4-(2-methyl-propoxy-tetrahydro-pyran)-phenoxy]-[2,2′]bithiophenyl]		Well soluble in THF(about 75,000 ppm)	
C=CC(C=C)OC(=O)CCCCCOc1ccc(-c2ccc(-c3ccc(-c4ccc(OCCCCCC(=O)OC(C=C)C=C)cc4)s3)s2)cc1 [6-[4-(5′-[5-(1-Vinyl-allyloxycarbonyl)-pentyloxy]-phenyl}-[2,2′]bithiophenyl-5-yl)-phenoxy]-hexanoic acid 1-vinyl-allyl ester]		well soluble in THF(131,000 ppm)	
CC(C)CCCC(C)CCOc1ccc(-c2ccc(-c3ccc(-c4ccc(OCCC(C)CCCC(C)C)cc4)s3)s2)cc1 (stereo not shown) [8(3,7Me)-O-PTTP-O-8(3,7Me), 5,5′-bis(4-(3,7-dimethyloctyloxy)phenyl)-2,2′-bithiophene]	192	solubility in THF about12,000 ppmDCS: mp = 192° C., smallertransition at 143° C.(diastereomer or LC)	
CCC(CC)COc1ccc(-c2ccc(-c3ccc(-c4ccc(OCC(CC)CC)cc4)s3)s2)cc1 [4(2Et)-O-PTTP-O-4(2Et), 5,5′-bis(4-(2-ethylbutyloxy)phenyl)-2,2′-bithiophene]		solubility in THF about4,900 ppm	
CC(CO)COc1ccc(-c2ccc(-c3ccc(-c4ccc(OCC(C)CO)cc4)s3)s2)cc1 (stereo not shown) [3(3OH,2Me)-O-PTTP-O-3(3OH,2Me), 3-(4-{5′-[4-(3-Hydroxy-2-methyl-propoxy)-phenyl]-[2,2′]bithiophenyl-5-yl}-phenoxy)-2-methyl-propan-1-ol]		Low solubility in THF(600 ppm)	

Continued, in another order:

melting point [°C]	Compound	solubility in THF ([1]; THF)	further results
143	CCCCCC(C)Oc1ccc(-c2ccc(-c3ccc(-c4ccc(OC(C)CCCCC)cc4)s3)s2)cc1 (stereo not shown) [6(1Me)-O-PTTP-O-6(1Me), 5,5′bis(4-(1-methylhexyloxy)phenyl)-2,2′-bithiophene]		solubility in THF relative to 7(2Me)-PTTP-7(2Me) ([1]; THF): approximately twice; solubility in 2-Ethylhexanol ([2]; 2-Ethylhexanol): ~800 ppm; solubility in THF/cyclohexanol 2:8 ([2]; THF/cyclohexanol 2:8 (viscosity 9 mPas)): 4,000 ppm; solubility in o-xylene [2]: 54,000 ppm
243	CCCCCCOc1ccc(-c2ccc(-c3ccc(-c4ccc(OCCCCCC)cc4)s3)s2)cc1 [6-O-PTTP-O-6, 5,5′-bis(4-hexyloxyphenyl)-2,2′-bithiophene]	solubility in THF about600 ppm, lowest value byfar. Differential scanningcalorimetry (“DSC”);melting point = 243° C.,smaller transitions at 65,148, 176, 255, 261° C.(doastereomers or LC)	
197	CCCCC(C)COc1ccc(-c2ccc(-c3ccc(-c4ccc(OCC(C)CCCC)cc4)s3)s2)cc1 (stereo not shown) [6(2Me)-O-PTTP-O-6(2Me), 5,5′-bis(4-(2-methylhexyloxy)phenyl)-2,2′-bithiophene]	sufficiently soluble in THF(about 61,000 ppm)DSC: mp = 197 °C	
250	CC(C)CCCOc1ccc(-c2ccc(-c3ccc(-c4ccc(OCCCC(C)C)cc4)s3)s2)cc1 [5(4Me)-O-PTTP-O-5(4Me), 5,5′-bis(4-(4-methylpentyloxy)phenyl)-2,2′-bithiophene]	solubility in THF about5400 ppm. DSC: mp =250° C., smaller transitionaround 173 °C (couldbe LC)	
148	CCCCC(CC)COc1ccc(-c2ccc(-c3ccc(-c4ccc(OCC(CC)CCCC)cc4)s3)s2)cc1 (stereo not shown) [6(2Et)-O-PTTP-O-6(2Et), 5,5′-bis(4-(2-ethylhexyloxy)phenyl)-2,2′-bithiophene]	~70,000 ppm	solubility in o-xylene [2]: ~25,000 ppm; viscosity η of formulation [3]: 22 mPas
97 to 102	CCCCCC(CC)Oc1ccc(-c2ccc(-c3ccc(-c4ccc(OC(CC)CCCCC)cc4)s3)s2)cc1 (stereo not shown) [6(1Et)-O-PTTP-O-6(1Et), 5,5′-Bis-[4-(1-ethyl-hexyloxy)-phenyl]-[2,2′]bithiophenyl]	Well soluble in THF(about 330,000 ppm)DSC: mp = 97-102° C.,(broad transition)	

Reference: patent US7488834B2, “Organic semiconductors” (Alcatel-Lucent USA Inc., priority 2005, dated 2009)
